{"source": "paper PMC10193543", "about": "(ACS Omega, 2023)", "key": {"[1]": {"biological_target": "T1, mushroom TYR (Agaricus bisporus, UniProt C7FF04)", "test": "Kinetic study of tyrosinase inhibitory activity", "format": "biochemical"}, "[2]": {"biological_target": "T1, mushroom TYR", "test": "biochemical", "settings": "read-out: % inhibition at 25 μg/mL"}}, "data": [{"smiles": "COc1ccc(C2CC(c3ccc(C)cc3)=Nc3ccccc3S2)cc1OC", "note": "(stereo not drawn) [compound 2, 2-(3,4-dimethoxyphenyl)-4-(p-tolyl)-2,3-dihydrobenzo[b][1,4]thiazepine]", "values": [{"measurement": "Ki", "setting": "[1]", "result": 1.01, "unit": "µM"}, {"measurement": "inhibition type", "setting": "[1]; diphenolase activity, L-DOPA oxidation, Lineweaver–Burk plots", "result": "mixed-type inhibition"}, {"measurement": "inhibition at 25 µg/mL", "setting": "[2]", "result": "89 ± 3", "unit": "%"}]}]}
